Reference: patent US20260091082A1, “CYCLIC PEPTIDE DERIVATIVE COMPOSITION FOR TREATING OR PREVENTING EYE DISEASE” (DKS Co. Ltd., priority 2022, published 2026)
Values joined by “and” are separate entries in the source; they are usually repeats but may differ in a detail not shown here. Identical values can stand only once.

Test system: anterior chamber aqueous humor pressure load rat model
Test: Retinal thickness (IPL, INL, ONL) in retinal damage model induced by anterior chamber aqueous humor pressure load
Assay type: in vivo, Rat; Slc: SD
Details: for Thickness of INL (μm) / Thickness of IPL (μm) / Thickness of ONL (μm): 14 days after model creation, mean ± S.E., 10 animals
Description: • Name: Compound 9 • Source: Synthesized in the above Examples • Used amount: 0.4 mL (50 mg/mL solution) • Storage conditions: Freezing, light shielding
Method for preparing test substance (1 mg/mL): A high concentration solution prepared at 50 mg/mL was diluted 50 times with a medium to prepare a 1 mg/mL administration solution.
• Name: MK-801 • Distributor: SIGMA-ALDRICH • Use amount: 0.0501 g • Storage condition: refrigerated (2° C. to 8° C.)
Method for preparing positive control substance (10 mg/mL): 0.0501 g was weighed out and made up to a total volume of 5 mL with a control substance (physiological saline).
• Species and strains: Rat; Slc: SD • Number of animals on arrival and sex: 50 males • Age in weeks at arrival: 6 weeks old • Body weight range at arrival: 147.2 to 170.0 g • Source: Japan SLC, Inc.
Grouping was performed two days before the first creation of the retinal damage model induced by an anterior chamber aqueous humor pressure load. Using the daily body weight as an index, stratified random allocation was performed using SAS (Ver. 9.3, SAS Institute Japan Ltd.) and EXSUS (Ver. 8.0, CAC Croit Corporation) so that an average value of the body weights of each group was approximately uniform.
• Administration route: Eyedrop administration, intravenous administration • Administration method (eyedrop): Eyedrop administration was performed on a treated eye (right eye) of a rat using a micropipette 4 times a day (at intervals of 1.5 hours or more). • Administration method (intravenous): The amount of administration solution, calculated from the body weight on the day of administration, was administered from the tail vein using a syringe and an injection needle about 30 minutes before ischemic load. • Time of administration: Administration was performed according to the following schedule.
1. 10 mg/kg xylazine hydrochloride was intramuscularly administered on the model creation day (day 0). A rat was placed in an anesthesia box and subjected to general anesthesia with isoflurane (5%, oxygen:nitrous oxide=1:3). When anesthesia was effective, the rat was taken out of the anesthesia box, an inhalation anesthetic mask was worn, and anesthesia was maintained with isoflurane (1% to 5%, oxygen nitrous oxide=1:3).
2. The body temperature was maintained at 37° C. with a warming mat, and a mydrin P ophthalmic solution was instilled in the right eye (treated eye) of the rat to dilate the pupil, then the cravit ophthalmic solution 1.5% (Santen Pharmaceutical Co., Ltd.) was instilled.
3. A bottle of an IV bag containing physiological saline was previously suspended so that a water surface was 155 cm (100 mmHg or more) higher than the eye of the rat. The IV bag was connected to a pediatric infusion set (Terumo Corporation), a 27 G injection needle thereof was inserted into and fixed to the anterior chamber while slightly dripping the liquid from a needle tip. The model was created in the light phase (6:00 to 18:00) in consideration of the diurnal variation of the intraocular pressure.
4. After the needle was inserted into the anterior chamber, pressure (100 mmHg or more) was loaded and maintained in the anterior chamber by associating the reflux system.
5. After an ischemic load for 45 minutes, the injection needle and the like were removed, the inhalation anesthetic mask was removed, and the rat was sufficiently woken up under a warming mat, and then returned to the cage.
6. For 2 days after surgery, 10 mg/kg xylazine hydrochloride was intramuscularly administered as an analgesic for the purpose of alleviating the pain after the treatment.
1. Fourteen days after model creation, general anesthesia was performed with isoflurane (5%, oxygen:nitrous oxide=1:3), euthanasia was then performed by exsanguination, a suture was placed as a marker at the 12 o'clock position of the ocular conjunctiva, and eyeball enucleation was performed.
2. […]

[1] = 300 μm from optic disk, 1 mg/mL eye drop 4 times/day for 13 days from the day after model creation (test group 3)
[2] = 300 μm from optic disk, 1 mg/mL eye drop 4 times/day for 13 days from the day after model creation (test group 3), listed as compound 9
[3] = 300 μm from optic disk, (pre) 1 mg/mL eye drop 4 times/day on the 2 days before model creation (test group 2)
[4] = 300 μm from optic disk, (pre) 1 mg/mL eye drop 4 times/day on the 2 days before model creation (test group 2), listed as compound 9
[5] = 600 μm from optic disk, 1 mg/mL eye drop 4 times/day for 13 days from the day after model creation (test group 3)
[6] = 600 μm from optic disk, 1 mg/mL eye drop 4 times/day for 13 days from the day after model creation (test group 3), listed as compound 9
[7] = 600 μm from optic disk, (pre) 1 mg/mL eye drop 4 times/day on the 2 days before model creation (test group 2)
[8] = 600 μm from optic disk, (pre) 1 mg/mL eye drop 4 times/day on the 2 days before model creation (test group 2), listed as compound 9
[9] = 900 μm from optic disk, 1 mg/mL eye drop 4 times/day for 13 days from the day after model creation (test group 3)
[10] = 900 μm from optic disk, 1 mg/mL eye drop 4 times/day for 13 days from the day after model creation (test group 3), listed as compound 9
[11] = 900 μm from optic disk, (pre) 1 mg/mL eye drop 4 times/day on the 2 days before model creation (test group 2)

CC[C@@]1(C)Oc2cc(ccc2O)C[C@H](NC)C(=O)N[C@@H](C(C)C)C(=O)N[C@@H]1C(=O)N[C@@H](CC(=O)O)C(=O)O [Compound 9]
Thickness of INL (μm), Distance from Optic Disk 300 μm (1 mg/mL eye drop (not pre), right eye, 300 μm from optic disk, individual measurements per animal): 27.268 μm and 29.194 μm and 27.960 μm and 26.601 μm and 24.843 μm (2×) and 25.835 μm and 20.052 μm and 21.030 μm and 18.618 μm and 25.039 μm and 27.705 μm and 29.211 μm and 23.276 μm and 30.228 μm and 28.329 μm (2×) and 29.740 μm (2×) and 27.292 μm and 28.168 μm and 41.632 μm and 38.927 μm and 48.313 μm and 31.260 μm and 35.869 μm and 37.963 μm and 31.090 μm and 28.954 μm and 30.909 μm
Thickness of IPL (μm), Distance from Optic Disk 300 μm (1 mg/mL eye drop (not pre), right eye, 300 μm from optic disk, individual measurements per animal, listed as compond 9): 32.198 μm and 30.002 μm and 34.224 μm and 39.119 μm and 37.558 μm and 34.827 μm and 27.585 μm and 28.700 μm and 33.412 μm and 37.176 μm (3×) and 37.457 μm and 36.016 μm and 35.842 μm and 37.411 μm and 38.117 μm and 35.930 μm and 36.185 μm and 37.237 μm and 38.550 μm and 39.901 μm and 45.876 μm and 47.765 μm and 46.968 μm and 35.532 μm and 36.791 μm and 36.389 μm and 42.704 μm and 39.019 μm
Thickness of INL (μm), Distance from Optic Disk 300 μm, Mean (1 mg/mL eye drop (not pre), right eye, 300 μm from optic disk, mean per animal): 28.141 μm and 25.760 μm and 19.900 μm and 25.862 μm and 27.572 μm and 28.454 μm and 28.746 μm and 42.957 μm and 35.031 μm and 30.318 μm
Thickness of IPL (μm), Distance from Optic Disk 300 μm, Mean (1 mg/mL eye drop (not pre), right eye, 300 μm from optic disk, mean per animal, listed as compond 9): 32.141 μm and 37.168 μm and 29.899 μm and 36.883 μm and 36.810 μm and 36.744 μm and 38.563 μm and 46.870 μm and 36.237 μm and 39.633 μm
Thickness of INL (μm), Distance from Optic Disk 600 μm (1 mg/mL eye drop (not pre), right eye, 600 μm from optic disk, individual measurements per animal): 24.738 μm and 26.582 μm and 31.689 μm and 28.581 μm and 25.207 μm and 26.625 μm and 29.576 μm and 28.954 μm and 37.237 μm and 34.673 μm and 26.256 μm and 29.926 μm and 35.484 μm and 34.715 μm and 36.694 μm and 38.253 μm and 32.381 μm and 33.458 μm and 33.871 μm and 36.611 μm and 27.419 μm and 34.733 μm and 25.544 μm and 26.908 μm and 37.411 μm and 29.937 μm and 35.493 μm and 34.034 μm and 32.419 μm and 29.046 μm
Thickness of IPL (μm), Distance from Optic Disk 600 μm (1 mg/mL eye drop (not pre), right eye, 600 μm from optic disk, individual measurements per animal, listed as compond 9): 38.128 μm and 36.322 μm and 43.429 μm and 43.876 μm and 37.066 μm and 37.938 μm and 42.704 μm and 40.500 μm and 46.031 μm and 45.964 μm and 42.314 μm (2×) and 45.398 μm and 49.200 μm and 42.129 μm and 48.205 μm and 50.755 μm and 43.015 μm and 42.630 μm and 42.759 μm and 41.121 μm and 42.214 μm and 37.880 μm and 41.066 μm and 41.515 μm and 38.919 μm and 45.161 μm and 49.299 μm and 44.538 μm and 46.083 μm
Thickness of INL (μm), Distance from Optic Disk 600 μm, Mean (1 mg/mL eye drop (not pre), right eye, 600 μm from optic disk, mean per animal): 26.246 μm and 31.668 μm and 25.792 μm and 28.479 μm and 36.440 μm and 28.706 μm and 35.231 μm and 36.327 μm and 32.753 μm and 33.176 μm
Thickness of IPL (μm), Distance from Optic Disk 600 μm, Mean (1 mg/mL eye drop (not pre), right eye, 600 μm from optic disk, mean per animal, listed as compond 9): 38.524 μm and 43.173 μm and 37.628 μm and 41.423 μm and 44.503 μm and 42.210 μm and 45.497 μm and 49.420 μm and 43.394 μm and 43.719 μm
Thickness of INL (μm), Distance from Optic Disk 900 μm (1 mg/mL eye drop (not pre), right eye, 900 μm from optic disk, individual measurements per animal): 23.463 μm and 23.821 μm and 26.168 μm and 31.627 μm and 31.452 μm and 31.822 μm and 18.956 μm and 25.938 μm and 21.867 μm and 22.952 μm and 23.718 μm and 22.465 μm and 26.601 μm and 27.289 μm and 29.587 μm and 30.400 μm and 26.367 μm and 26.057 μm and 35.226 μm and 33.688 μm and 33.919 μm and 36.066 μm and 40.039 μm and 42.383 μm and 29.394 μm and 29.751 μm and 27.773 μm and 29.233 μm and 27.808 μm and 25.454 μm
Thickness of IPL (μm), Distance from Optic Disk 900 μm (1 mg/mL eye drop (not pre), right eye, 900 μm from optic disk, individual measurements per animal, listed as compond 9): 39.528 μm and 37.965 μm and 40.039 μm and 50.240 μm and 47.772 μm and 44.149 μm and 38.417 μm and 36.462 μm and 38.383 μm and 39.277 μm and 38.777 μm and 38.865 μm and 45.233 μm and 47.955 μm and 43.645 μm and 43.616 μm and 43.735 μm and 42.098 μm and 53.201 μm and 48.131 μm and 47.334 μm and 50.136 μm and 51.594 μm and 51.265 μm and 43.640 μm and 42.918 μm and 42.582 μm and 46.425 μm and 48.902 μm and 47.239 μm
Thickness of INL (μm), Distance from Optic Disk 900 μm, Mean (1 mg/mL eye drop (not pre), right eye, 900 μm from optic disk, mean per animal): 24.484 μm and 31.634 μm and 22.254 μm and 23.045 μm and 27.826 μm and 27.608 μm and 34.278 μm and 39.496 μm and 28.973 μm and 27.498 μm
Thickness of IPL (μm), Distance from Optic Disk 900 μm, Mean (1 mg/mL eye drop (not pre), right eye, 900 μm from optic disk, mean per animal, listed as compond 9): 39.177 μm and 47.387 μm and 37.754 μm and 38.973 μm and 45.611 μm and 43.150 μm and 49.555 μm and 50.998 μm and 43.047 μm and 47.522 μm
Thickness of INL (μm) [1]: 29.27±1.94 μm
Thickness of IPL (μm) [1]: 37.09±1.42 μm
Thickness of ONL (μm) [1]: 42.79±2.60 μm
Thickness of INL (μm) [2]: 29.27 ± 1.94 μm
Thickness of ONL (μm) [2]: 42.79 ± 2.60 μm
Thickness of INL (μm) [3]: 28.93±1.27 μm
Thickness of IPL (μm) [3]: 31.31±0.93 μm
Thickness of ONL (μm) [3]: 40.06±1.61 μm
Thickness of INL (μm) [4]: 28.93 ± 1.27 μm
Thickness of ONL (μm) [4]: 40.06 ± 1.61 μm
Thickness of INL (μm) [5]: 31.48±1.26 μm
Thickness of IPL (μm) [5]: 42.95±1.07 μm
Thickness of ONL (μm) [5]: 42.33±1.81 μm
Thickness of INL (μm) [6]: 31.48 ± 1.26 μm
Thickness of ONL (μm) [6]: 42.33 ± 1.81 μm
Thickness of INL (μm) [7]: 31.25±1.29 μm
Thickness of IPL (μm) [7]: 38.85±1.23 μm
Thickness of ONL (μm) [7]: 43.03±0.82 μm
Thickness of INL (μm) [8]: 31.25 ± 1.29 μm
Thickness of ONL (μm) [8]: 43.03 ± 0.82 μm
Thickness of IPL (μm) [9]: 44.32±1.47 μm
Thickness of ONL (μm) [9]: 39.42±1.92 μm
Thickness of INL (μm) [10]: 28.71 ± 1.67 μm
Thickness of ONL (μm) [10]: 39.42 ± 1.92 μm
Thickness of INL (μm) [11]: 30.39±1.24 μm
Thickness of IPL (μm) [11]: 41.51±1.27 μm
